Measured values reported in the supplement of paper PMC10307832.

Legend:
Assay in all cases: relative viability (nuclei count vs DMSO), 5 days (fraction); higher = more cells survive
[1] = compound: C1/C(=C\C2=CC=CS2)/C(=O)/C(=C/C3=CC=CS3)/C1 + CC(=O)c1c(C)c2cnc(Nc3ccc(N4CCNCC4)cn3)nc2n(C2CCCC2)c1=O [Palbociclib] (partner 0.5 µM)
Procedure, shortened: (§1)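 Relative viability divides the nuclei count in treated wells by that in vehicle wells. Lung cancer cell lines were seeded in 1536-well plates, dosed by pin tool the next day, and fixed and stained after 5 days in one step with final 0.05% Triton X-100, 1% formaldehyde and 1 ug/ml Hoechst. Dosing was a single drug or a fixed anchor-drug dose plus five library-drug doses (not always all listed) in √10 steps, and values are medians of duplicate plates imaged at 4×.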

[2] = compound: C1/C(=C\C2=CC=CS2)/C(=O)/C(=C/C3=CC=CS3)/C1 + N=C(N)NC(=N)NCCc1ccccc1 [Phenformin] (partner 250 µM)
Procedure, shortened: as §1

TPCA-1 + Crizotinib = compound: C1=CC(=CC=C1C2=CC(=C(S2)NC(=O)N)C(=O)N)F [TPCA-1] + C[C@@H](Oc1cc(-c2cnn(C3CCNCC3)c2)cnc1N)c1c(Cl)ccc(F)c1Cl [Crizotinib] (partner 1 µM)
Procedure, shortened: as §1

[3] = compound: C[C@]12O[C@H](C[C@]1(O)CO)n1c3ccccc3c3c4c(c5c6ccccc6n2c5c31)CNC4=O [Lestaurtinib] + CC(C)C[C@H](NC(=O)[C@H](Cc1ccccc1)NC(=O)c1cnccn1)B(O)O [Bortezomib] (partner 0.002 µM)
Procedure, shortened: as §1

Cell Line | relative viability ([1]; first compound 0.2 µM) | relative viability ([1]; first compound 0.6325 µM) | relative viability ([1]; first compound 2 µM) | relative viability ([1]; first compound 6.325 µM) | relative viability ([1]; first compound 20 µM) | relative viability ([2]; first compound 0.2 µM) | relative viability ([2]; first compound 0.6325 µM) | relative viability ([2]; first compound 2 µM) | relative viability ([2]; first compound 6.325 µM) | relative viability ([2]; first compound 20 µM) | relative viability (TPCA-1 + Crizotinib; first compound 0.04 µM) | relative viability (TPCA-1 + Crizotinib; first compound 0.1265 µM) | relative viability (TPCA-1 + Crizotinib; first compound 0.4 µM) | relative viability (TPCA-1 + Crizotinib; first compound 1.265 µM) | relative viability (TPCA-1 + Crizotinib; first compound 4 µM) | relative viability ([3]; first compound 0.005 µM) | relative viability ([3]; first compound 0.01581 µM) | relative viability ([3]; first compound 0.05 µM) | relative viability ([3]; first compound 0.1581 µM) | relative viability ([3]; first compound 0.5 µM)
NCI-H460 | 0.201 | 0.174 | 0.224 | 0.244 | 0.146 | 0.543 | 0.568 | 0.519 | 0.344 | 0.522 | 0.911 | 0.919 | 0.889 | 0.883 | 0.298 | 1.08 | 1.35 | 0.926 | 1.44 | 0.84
RERF-LC-KJ | 1.04 | 1.2 | 1.05 | 0.965 | 0.852 | 0.407 | 0.461 | 0.474 | 0.432 | 0.432 | 0.875 | 0.815 | 0.835 | 0.792 | 0.758 | 1.43 | 1.17 | 0.908 | 0.836 | 0.728
LCLC-103H | 0.49 | 0.456 | 0.469 | 0.426 | 0.469 | 0.326 | 0.329 | 0.361 | 0.288 | 0.356 | 1.12 | 1.03 | 0.96 | 1.03 | 1.03 | 1.09 | 1.07 | 0.943 | 0.908 | 0.56
HCC-15 | 0.721 | 0.734 | 0.824 | 0.682 | 0.73 | 0.516 | 0.467 | 0.545 | 0.445 | 0.442 | 0.833 | 0.81 | 0.831 | 0.798 | 0.563 | 1.04 | 1.28 | 0.868 | 0.868 | 0.194
H3255 | 0.325 | 0.33 | 0.324 | 0.308 | 0.297 | 0.377 | 0.324 | 0.352 | 0.34 | 0.309 | 0.815 | 0.882 | 0.863 | 0.674 | 0.848 | 0.773 | 0.982 | 0.648 | 0.903 | 0.351
NCI-H1792 | 0.665 | 0.656 | 0.713 | 0.331 | 0.627 | 0.514 | 0.273 | 0.67 | 0.287 | 0.322 | 1.01 | 0.952 | 1.02 | 0.928 | 0.584 | 1.29 | 1.08 | 0.5 | 1.07 | 0.437
NCI-H2087 | 0.272 | 0.215 | 0.271 | 0.168 | 0.303 | 0.5 | 0.546 | 0.553 | 0.393 | 0.431 | 0.801 | 0.828 | 0.781 | 0.867 | 0.283 | 0.882 | 0.936 | 0.745 | 0.764 | 0.354
NCI-H661 | 0.405 | 0.403 | 0.41 | 0.394 | 0.421 | 0.288 | 0.259 | 0.275 | 0.253 | 0.307 | 0.968 | 0.889 | 1.05 | 0.988 | 0.825 | 0.736 | 0.813 | 0.831 | 0.685 | 0.436
EMC-BAC-2 | 0.548 | 0.549 | 0.526 | 0.472 | 0.518 | 0.549 | 0.513 | 0.558 | 0.521 | 0.521 | 0.737 | 0.836 | 0.788 | 0.755 | 0.663 | 1.1 | 1.11 | 0.942 | 0.678 | 0.279
NCI-H1355 | 0.381 | 0.379 | 0.408 | 0.34 | 0.382 | 0.512 | 0.492 | 0.465 | 0.397 | 0.434 | 1.1 | 1.03 | 1.11 | 0.977 | 0.712 | 1.36 | 1.2 | 1.21 | 1.03 | 0.571
NCI-H23 | 0.553 | 0.557 | 0.551 | 0.478 | 0.462 | 0.775 | 0.863 | 0.828 | 0.78 | 0.699 | 0.582 | 0.503 | 0.515 | 0.441 | 0.341 | 0.904 | 1.04 | 0.642 | 1.1 | 0.255
NCI-H1651 | 0.48 | 0.554 | 0.563 | 0.47 | 0.527 | 0.352 | 0.372 | 0.446 | 0.26 | 0.323 | 0.853 | 0.841 | 0.892 | 0.812 | 0.747 | 0.878 | 1.07 | 0.883 | 1.03 | 0.648
NCI-H1975 | 0.661 | 0.547 | 0.426 | 0.506 | 0.549 | 0.399 | 0.388 |  | 0.37 | 0.411 | 0.985 | 0.863 | 0.972 | 0.939 | 0.691 | 0.467 | 0.368 | 0.345 | 0.318 | 0.217
COR-L23 | 0.333 | 0.283 | 0.338 | 0.294 | 0.297 | 0.458 | 0.465 | 0.376 | 0.433 | 0.476 | 0.686 | 0.666 | 0.715 | 0.532 | 0.323 | 1.21 | 1.07 |  | 0.697 | 0.464
HCC-44 | 0.984 | 1 | 0.926 | 0.862 | 1.04 | 0.161 | 0.27 | 0.278 | 0.21 | 0.161 | 0.798 | 0.708 | 0.76 | 0.681 | 0.644 | 0.925 | 0.997 | 0.873 | 1.06 | 0.683
LOU-NH91 | 0.564 | 0.584 | 0.523 | 0.507 | 0.55 | 0.696 | 0.757 | 0.843 | 0.67 | 0.736 | 0.724 | 0.736 | 0.726 | 0.731 | 0.656 | 0.486 | 0.549 | 0.53 | 0.511 | 0.373
